Measurements taken from US11739098B2 (BRISTOL-MYERS SQUIBB COMPANY, priority 2017, dated 2023).

What was measured:
Assay type in all cases: cell-based
human TLR7 = target: T1, human TLR7 (Homo sapiens, UniProt Q9NYK1); experiment: TLR7 inhibition reporter assay (HEK-Blue cells, SEAP reporter, gardiquimod stimulation); settings: HEK-Blue cells overexpressing human TLR7, SEAP reporter, gardiquimod 7.5 μM
T1 construct: host or cells: HEK-Blue cells (HEK293-derived reporter line)
T1 sequence (Q9NYK1 27-1049): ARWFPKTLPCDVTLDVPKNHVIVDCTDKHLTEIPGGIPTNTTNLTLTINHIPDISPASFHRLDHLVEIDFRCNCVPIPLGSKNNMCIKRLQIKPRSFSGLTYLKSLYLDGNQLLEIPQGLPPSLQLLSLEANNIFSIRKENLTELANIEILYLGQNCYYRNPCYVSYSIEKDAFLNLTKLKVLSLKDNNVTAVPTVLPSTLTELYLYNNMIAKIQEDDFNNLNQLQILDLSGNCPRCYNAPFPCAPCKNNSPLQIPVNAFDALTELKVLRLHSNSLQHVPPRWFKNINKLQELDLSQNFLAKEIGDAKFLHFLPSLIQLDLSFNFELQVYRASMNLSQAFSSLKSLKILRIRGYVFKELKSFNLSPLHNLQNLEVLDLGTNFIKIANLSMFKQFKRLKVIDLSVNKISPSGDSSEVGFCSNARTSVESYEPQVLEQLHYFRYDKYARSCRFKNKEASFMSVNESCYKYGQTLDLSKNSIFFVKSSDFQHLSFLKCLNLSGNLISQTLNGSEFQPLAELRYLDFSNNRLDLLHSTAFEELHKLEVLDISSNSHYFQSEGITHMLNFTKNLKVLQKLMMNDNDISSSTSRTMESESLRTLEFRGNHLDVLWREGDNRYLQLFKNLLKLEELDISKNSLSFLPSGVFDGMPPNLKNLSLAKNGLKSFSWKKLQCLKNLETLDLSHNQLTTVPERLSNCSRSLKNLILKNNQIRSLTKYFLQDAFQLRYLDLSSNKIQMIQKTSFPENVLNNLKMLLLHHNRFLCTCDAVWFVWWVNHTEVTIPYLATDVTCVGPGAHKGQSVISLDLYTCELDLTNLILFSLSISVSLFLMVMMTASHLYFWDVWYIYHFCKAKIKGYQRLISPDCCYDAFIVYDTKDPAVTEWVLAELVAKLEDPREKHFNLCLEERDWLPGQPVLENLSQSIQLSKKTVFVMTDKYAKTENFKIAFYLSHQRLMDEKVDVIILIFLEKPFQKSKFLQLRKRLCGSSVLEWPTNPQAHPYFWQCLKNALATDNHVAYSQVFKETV
In short: (§1)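 After 22 h at 37 °C, SEAP secretion was measured from human TLR7-, TLR8- or TLR9-expressing HEK-Blue reporter cells given compound (0.05 nM–50 μM) 30 min before agonist: 7.5 μM gardiquimod, 15.9 μM R848 or 5 nM ODN2006 respectively. Percent inhibition referenced to agonist-plus-DMSO and known-inhibitor wells.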

human TLR8 = target: T2, human TLR8 (Homo sapiens, UniProt Q9NR97); experiment: TLR8 inhibition reporter assay (HEK-Blue cells, SEAP reporter, R848 stimulation); settings: HEK-Blue cells overexpressing human TLR8, SEAP reporter, R848 15.9 μM
T2 construct: host or cells: HEK-Blue cells (HEK293-derived reporter line)
T2 sequence (Q9NR97 27-1041): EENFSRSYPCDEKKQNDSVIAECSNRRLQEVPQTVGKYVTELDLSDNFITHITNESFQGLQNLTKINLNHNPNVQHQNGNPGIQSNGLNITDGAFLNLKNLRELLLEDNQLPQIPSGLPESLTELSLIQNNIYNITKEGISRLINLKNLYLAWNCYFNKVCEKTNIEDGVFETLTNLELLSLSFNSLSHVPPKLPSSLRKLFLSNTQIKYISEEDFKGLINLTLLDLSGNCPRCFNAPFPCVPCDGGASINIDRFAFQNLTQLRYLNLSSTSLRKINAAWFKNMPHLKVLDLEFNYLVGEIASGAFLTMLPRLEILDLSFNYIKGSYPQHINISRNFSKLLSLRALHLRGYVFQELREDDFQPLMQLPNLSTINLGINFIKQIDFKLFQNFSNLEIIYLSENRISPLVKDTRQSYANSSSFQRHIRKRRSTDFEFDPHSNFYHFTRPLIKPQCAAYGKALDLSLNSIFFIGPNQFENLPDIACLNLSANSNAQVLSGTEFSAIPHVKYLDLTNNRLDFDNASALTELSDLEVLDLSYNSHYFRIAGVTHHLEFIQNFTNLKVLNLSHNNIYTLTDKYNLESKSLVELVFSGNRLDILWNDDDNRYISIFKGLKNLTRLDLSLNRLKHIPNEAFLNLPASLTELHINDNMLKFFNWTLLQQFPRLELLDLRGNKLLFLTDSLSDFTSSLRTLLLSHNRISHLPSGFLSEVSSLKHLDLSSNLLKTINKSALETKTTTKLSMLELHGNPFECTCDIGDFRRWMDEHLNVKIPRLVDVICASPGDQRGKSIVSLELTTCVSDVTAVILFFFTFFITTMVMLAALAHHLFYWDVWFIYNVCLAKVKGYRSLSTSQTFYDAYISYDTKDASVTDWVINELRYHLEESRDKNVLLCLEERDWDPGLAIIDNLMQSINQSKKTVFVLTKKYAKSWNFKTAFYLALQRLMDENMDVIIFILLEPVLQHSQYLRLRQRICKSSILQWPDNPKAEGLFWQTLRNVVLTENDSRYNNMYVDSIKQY
In short: as §1

human TLR9 = target: T3, human TLR9 (Homo sapiens, UniProt Q9NR96); experiment: TLR9 inhibition reporter assay (HEK-Blue cells, SEAP reporter, ODN2006 stimulation); settings: HEK-Blue cells overexpressing human TLR9, SEAP reporter, ODN2006 5 nM
T3 construct: host or cells: HEK-Blue cells (HEK293-derived reporter line)
T3 sequence (Q9NR96 26-1032): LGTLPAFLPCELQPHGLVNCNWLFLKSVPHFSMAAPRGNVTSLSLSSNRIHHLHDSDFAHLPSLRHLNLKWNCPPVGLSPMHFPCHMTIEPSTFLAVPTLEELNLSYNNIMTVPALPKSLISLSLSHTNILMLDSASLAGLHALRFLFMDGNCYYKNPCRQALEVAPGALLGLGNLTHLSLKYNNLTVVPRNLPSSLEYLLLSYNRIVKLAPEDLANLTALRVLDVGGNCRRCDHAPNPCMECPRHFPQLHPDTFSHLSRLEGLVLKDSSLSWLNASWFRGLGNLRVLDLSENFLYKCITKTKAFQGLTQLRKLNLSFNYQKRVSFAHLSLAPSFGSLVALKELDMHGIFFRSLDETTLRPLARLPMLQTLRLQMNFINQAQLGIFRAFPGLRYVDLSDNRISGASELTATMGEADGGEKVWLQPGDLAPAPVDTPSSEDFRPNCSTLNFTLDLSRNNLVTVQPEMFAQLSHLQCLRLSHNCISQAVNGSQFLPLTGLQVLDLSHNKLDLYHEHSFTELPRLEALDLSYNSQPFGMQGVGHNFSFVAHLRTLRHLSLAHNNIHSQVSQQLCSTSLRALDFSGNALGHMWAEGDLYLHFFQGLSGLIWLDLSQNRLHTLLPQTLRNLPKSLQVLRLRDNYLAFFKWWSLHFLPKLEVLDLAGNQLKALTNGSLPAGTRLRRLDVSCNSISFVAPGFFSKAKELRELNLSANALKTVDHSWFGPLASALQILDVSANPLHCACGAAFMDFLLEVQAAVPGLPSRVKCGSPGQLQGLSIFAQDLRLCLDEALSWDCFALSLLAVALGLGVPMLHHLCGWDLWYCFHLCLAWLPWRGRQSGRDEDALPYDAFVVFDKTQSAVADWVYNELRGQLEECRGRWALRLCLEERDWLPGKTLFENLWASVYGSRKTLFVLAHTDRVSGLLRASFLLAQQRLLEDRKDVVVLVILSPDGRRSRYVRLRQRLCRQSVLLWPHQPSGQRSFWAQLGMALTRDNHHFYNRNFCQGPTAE
In short: as §1

CC(C)c1c(-c2nc3c(s2)CNCC3)[nH]c2ccc(C3CCNCC3)cc12 [Example 208, 2-(3-isopropyl-5-(piperidin-4-yl)-1H-indol-2-yl)-4,5,6,7-tetrahydrothiazolo[5,4-c]pyridine]
IC50 (human TLR7): 1000 to 50000 nM | IC50 (human TLR8): 1000 to 50000 nM | IC50 (human TLR9): < 100 nM

CC(C)c1c(-c2ccnc3c2ccn3S(C)(=O)=O)[nH]c2ccc(C3CCNCC3)cc12 [Example 3, 4-(3-isopropyl-5-(piperidin-4-yl)-1h-indol-2-yl)-1-(methylsulfonyl)-1H-pyrrolo[2,3-b]pyridine]
IC50 (human TLR7): 100 to 1000 nM | IC50 (human TLR8): < 100 nM | IC50 (human TLR9): 100 to 1000 nM

CNC(=O)CN1CCC(c2ccc3[nH]c(-c4cn5nnnc5cc4C)c(C(C)C)c3c2)CC1 [Example 316, 2-(4-(3-isopropyl-2-(7-methyltetrazolo[1,5-a]pyridin-6-yl)-1H-indol-5-yl)piperidin-1-yl)-N-methylacetamide]
IC50 (human TLR7): < 100 nM | IC50 (human TLR8): 100 to 1000 nM | IC50 (human TLR9): 1000 to 50000 nM

CC(C)c1c(-c2ccc3cnnn3c2)[nH]c2ccc(C3CCN(CC(=O)N(C)C)CC3)cc12 [Example 299, 2-(4-(2-([1,2,3]triazolo[1,5-a]pyridin-6-yl)-3-isopropyl-1H-indol-5-yl)piperidin-1-yl)-N,N-dimethylacetamide]
IC50 (human TLR7): 100 to 1000 nM | IC50 (human TLR8): 100 to 1000 nM | IC50 (human TLR9): 100 to 1000 nM

CC(C)c1c(-c2ccc3oc(=O)[nH]c3c2)[nH]c2ccc(C3CCNCC3)cc12 [Example 11, 5-(3-isopropyl-5-(piperidin-4-yl)-1H-indol-2-yl)benzo[d]oxazol-2(3H)-one]
IC50 (human TLR7): < 100 nM | IC50 (human TLR8): 100 to 1000 nM | IC50 (human TLR9): 100 to 1000 nM

CCc1c(-c2ccnc3[nH]ncc23)[nH]c2ccc(C3CCN(C4CCN(C(C)C)CC4)CC3)cc12 [Example 824, 4-(3-ethyl-5-(1′-isopropyl-[1,4′-bipiperidin]-4-yl)-1H-indol-2-yl)-1H-pyrazolo[3,4-b]pyridine]
IC50 (human TLR7): < 100 nM | IC50 (human TLR8): < 100 nM | IC50 (human TLR9): < 100 nM

CC(C)c1c(-c2cc(C(F)(F)F)c3nccn3c2)[nH]c2ccc(C3CCN(C(C)C)CC3)cc12 [Example 942, 6-(3-isopropyl-5-(1-isopropylpiperidin-4-yl)-1H-indol-2-yl)-8-(trifluoromethyl)imidazo[1,2-a]pyridine]
IC50 (human TLR7): < 100 nM | IC50 (human TLR8): < 100 nM | IC50 (human TLR9): 1000 to 50000 nM

CCc1c(-c2ccnc3[nH]cc(CC)c23)[nH]c2ccc(C3CCNCC3)cc12 [Example 220, 3-ethyl-4-(3-ethyl-5-(piperidin-4-yl)-1H-indol-2-yl)-1H-pyrrolo[2,3-b]pyridine]
IC50 (human TLR7): 100 to 1000 nM | IC50 (human TLR8): 100 to 1000 nM | IC50 (human TLR9): 1000 to 50000 nM

CNC(=O)CN1CCC(c2ccc3[nH]c(-c4cc(C)n5ncnc5c4)c(C(C)C)c3c2)CC1 [Example 325, 2-(4-(3-isopropyl-2-(5-methyl-[1,2,4]triazolo [1,5-a]pyridin-7-yl)-1H-indol-5-yl)piperidin-1-yl)-N-methylacetamide]
IC50 (human TLR7): < 100 nM | IC50 (human TLR8): < 100 nM | IC50 (human TLR9): 1000 to 50000 nM

CC(C)c1c(-c2cc(Cl)c3ncccc3c2)[nH]c2ccc(C3CCN(CC(C)(C)O)CC3)cc12 [Example 767, 1-(4-(2-(8-chloroquinolin-6-yl)-3-isopropyl-1H-indol-5-yl)piperidin-1-yl)-2-methylpropan-2-ol]
IC50 (human TLR7): < 100 nM | IC50 (human TLR8): < 100 nM | IC50 (human TLR9): 1000 to 50000 nM

CC(C)c1c(-c2ccnc3[nH]ncc23)[nH]c2ccc(C3CCN(C(=O)CCC(=O)N(C)C)CC3)cc12 [Example 613, 4-(4-(3-isopropyl-2-(1H-pyrazolo[3,4-b]pyridin-4-yl)-1H-indol-5-yl)piperidin-1-yl)-N,N-dimethyl-4-oxobutanamide]
IC50 (human TLR7): 100 to 1000 nM | IC50 (human TLR8): 100 to 1000 nM | IC50 (human TLR9): > 50000 nM

CC(C)c1c(-c2cn(C)c3ncccc23)[nH]c2ccc(C3CCN(CCC#N)CC3)cc12 [Example 959, 3-(4-(3-isopropyl-2-(1-methyl-1H-pyrrolo[2,3-b]pyridin-3-yl)-1H-indol-5-yl)piperidin-1-yl)propanenitrile]
IC50 (human TLR7): < 100 nM | IC50 (human TLR8): < 100 nM | IC50 (human TLR9): > 50000 nM

Cc1nc2c(C)cc(-c3[nH]c4ccc(C5CCNCC5)cc4c3C(C)C)cn2c1C [Example 132, 6-(3-isopropyl-5-(piperidin-4-yl)-1H-indol-2-yl)-2,3,8-trimethylimidazo[1,2-a]pyridine]
IC50 (human TLR7): < 100 nM | IC50 (human TLR8): 100 to 1000 nM | IC50 (human TLR9): 100 to 1000 nM

CNC(=O)CN1CCC(c2ccc3[nH]c(-c4cc(C)c5nc(C)cn5c4)c(C(C)C)c3c2)CC1 [Example 391, 2-(4-(2-(2,8-dimethylimidazo[1,2-a]pyridin-6-yl)-3-isopropyl-1H-indol-5-yl)piperidin-1-yl)-N-methylacetamide]
IC50 (human TLR7): < 100 nM | IC50 (human TLR8): < 100 nM | IC50 (human TLR9): 100 to 1000 nM

Cc1cc(-c2[nH]c3ccc(C4CCNCC4)cc3c2C(C)C)cn2cc(C(=O)N(C)CCO)nc12 [Example 268, N-(2-hydroxyethyl)-6-(3-isopropyl-5-(piperidin-4-yl)-1H-indol-2-yl)-N,8-dimethylimidazo[1,2-a]pyridine-2-carboxamide]
IC50 (human TLR7): < 100 nM | IC50 (human TLR8): < 100 nM | IC50 (human TLR9): 1000 to 50000 nM
